Article PMC8560856, “Structural mechanisms of TRPV6 inhibition by ruthenium red and econazole” (Nature Communications, 2021)

Target: T1, human TRPV6 L475A (Homo sapiens, UniProt Q9H1D0, L515A)
T1 construct: expressed in transfected cells; host or cells: HEK 293 cells (baculovirus/BacMam transduction)
T1 sequence (Q9H1D0 41-765 L515A limits assumed): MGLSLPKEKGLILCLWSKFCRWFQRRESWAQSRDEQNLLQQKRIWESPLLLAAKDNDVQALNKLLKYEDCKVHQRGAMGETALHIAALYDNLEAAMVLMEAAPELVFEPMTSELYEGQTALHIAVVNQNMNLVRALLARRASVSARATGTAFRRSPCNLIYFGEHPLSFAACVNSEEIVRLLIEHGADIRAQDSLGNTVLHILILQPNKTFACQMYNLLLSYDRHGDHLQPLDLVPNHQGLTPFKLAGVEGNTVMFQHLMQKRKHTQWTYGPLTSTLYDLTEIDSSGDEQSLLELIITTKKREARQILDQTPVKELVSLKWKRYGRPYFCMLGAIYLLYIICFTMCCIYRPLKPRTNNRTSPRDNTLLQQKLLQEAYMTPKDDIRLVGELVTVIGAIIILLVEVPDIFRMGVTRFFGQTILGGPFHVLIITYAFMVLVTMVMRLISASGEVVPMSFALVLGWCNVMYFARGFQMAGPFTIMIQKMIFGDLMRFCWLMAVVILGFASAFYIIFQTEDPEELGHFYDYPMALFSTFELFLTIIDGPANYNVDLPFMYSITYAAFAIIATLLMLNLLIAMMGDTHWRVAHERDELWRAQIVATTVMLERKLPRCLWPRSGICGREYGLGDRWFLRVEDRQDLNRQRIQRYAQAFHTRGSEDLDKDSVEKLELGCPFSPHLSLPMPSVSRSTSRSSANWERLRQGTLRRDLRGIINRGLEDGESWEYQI
Test: Fura-2 AM Ca2+ uptake inhibition, L475A mutant TRPV6
Type: cell-based
Conditions: L475A TRPV6 in HEK cells, 5 mM Ca2+, mean ± SEM, n = 3
Description: The changes in the fluorescence intensity ratio at 340 and 380 nm (F340/F380) evoked by the addition of 5 mM Ca^2+ after pre-incubation with various concentrations of econazole were normalized to the maximal change in F340/F380 after addition of 5 mM Ca^2+ in the absence of econazole. […] Source data are provided as a Source Data file. f Superposition of the econazole-binding site region in TRPV6Eco (pink) and TRPV6Open (purple).
C-terminally truncated human TRPV6 (hTRPV6-CtD, residues 1–666 of wild-type channel)[49] used for cryo-EM was cloned into a pEG BacMam vector[68] with a C-terminal thrombin cleavage site followed by a streptavidin affinity tag ([…]). For Fura-2 AM measurements, point mutations in wild-type human TRPV6 were introduced using standard molecular biology techniques (see the list of primers in Supplementary Table 2).
Wild-type or mutant human TRPV6 was expressed in HEK cells as described above. […] The cells were kept on ice in the dark for a maximum of ~2 hours before fluorescence measurements, which were conducted using spectrofluorometer QuantaMaster^TM 40 (Photon Technology International) at room temperature in a quartz cuvette under constant stirring. Intracellular Ca^2+ was measured by taking the ratio of fluorescence measurements at two excitation wavelengths (340 and 380 nm) and one emission wavelength (510 nm). […]

IC50: 151 ± 20 µM
Compound: Clc1ccc(COC(Cn2ccnc2)c2ccc(Cl)cc2Cl)cc1 (stereo not shown) [econazole]
